From ChEMBL document CHEMBL1667756, “Design, synthesis and antibacterial activity of 3-methylenepyrrolidine formyl hydroxyamino derivatives as novel peptide deformylase inhibitors” (2011) come the findings set out here.

Molecules are shown by their SMILES. Values after ≈ are worked out from the molar mass of the structure shown. Bounds are passed on as bounds.

What all share (type): functional
Assay [1] has as its system Staphylococcus aureus. Nature of the assay: Antibacterial activity against Staphylococcus aureus ATCC 25923 by broth micro dilution technique.
The test system of assay [2] is Staphylococcus epidermidis. Nature of the assay: Antibacterial activity against methicillin-resistant Staphylococcus epidermidis ATCC 12228 by broth micro dilution technique.
Assay [3] has as its system Staphylococcus aureus. The assay can be described thus: Antibacterial activity against methicillin-resistant Staphylococcus aureus ATCC 43300 by broth micro dilution technique.
Assay [4] concerns Staphylococcus aureus. The assay can be described thus: Antibacterial activity against methicillin-susceptible Staphylococcus aureus ATCC 29213 by broth micro dilution technique.
The test system of assay [5] is Streptococcus pneumoniae. Nature of the assay: Antibacterial activity against penicillin-susceptible Streptococcus pneumoniae by agar dilution method. Background: Agar dilution tests growth on a series of plates holding different concentrations.
In assay [6] the test system is Streptococcus pneumoniae. The assay can be described thus: Antibacterial activity against penicillin-resistant Streptococcus pneumoniae by agar dilution method.
The next assay deals with Moraxella catarrhalis. Nature of the assay: Antibacterial activity against Moraxella catarrhalis 1502 by broth micro dilution technique.
The test system of assay [7] is Haemophilus influenzae. Nature of the assay: Antibacterial activity against AcrA deficient Haemophilus influenzae H128 by broth micro dilution technique.
The subject of assay [8] is Streptococcus pyogenes. Nature of the assay: Antibacterial activity against Streptococcus pyogenes 1308007P by broth micro dilution technique.
The test system of assay [9] is Haemophilus influenzae. The assay can be described thus: Antibacterial activity against Haemophilus influenzae by agar dilution method.
In a further assay the test system is Escherichia coli. Nature of the assay: Antibacterial activity against Escherichia coli by broth micro dilution technique.
The test system of assay [10] is Staphylococcus epidermidis. Nature of the assay: Antibacterial activity against methicillin-resistant Staphylococcus epidermidis by agar dilution method.
Assay [11] deals with Haemophilus influenzae. The assay can be described thus: Antibacterial activity against Haemophilus influenzae H128 by broth micro dilution technique.
In assay [12] the test system is Staphylococcus epidermidis. Nature of the assay: Antibacterial activity against methicillin-susceptible Staphylococcus epidermidis by agar dilution method.
The subject of assay [13] is Staphylococcus aureus. The assay can be described thus: Antibacterial activity against Staphylococcus aureus OXFORD by broth micro dilution technique.
The test system of assay [14] is Haemophilus influenzae. The assay can be described thus: Antibacterial activity against Haemophilus influenzae Q1 by broth micro dilution technique.
The subject of assay [15] is Staphylococcus aureus. The assay can be described thus: Antibacterial activity against methicillin-susceptible Staphylococcus aureus by agar dilution method.
Assay [16] has as its system Staphylococcus aureus. Nature of the assay: Antibacterial activity against Staphylococcus aureus WCUH29 by broth micro dilution technique.
For another assay, the system named is Enterococcus faecium. The assay can be described thus: Antibacterial activity against Enterococcus faecium X7501 by broth micro dilution technique.
In assay [17] the test system is Staphylococcus aureus. The assay can be described thus: Antibacterial activity against methicillin-resistant Staphylococcus aureus by agar dilution method.
The subject of assay [18] is Streptococcus pneumoniae. Nature of the assay: Antibacterial activity against Streptococcus pneumoniae ERY2 by broth micro dilution technique.
The subject of assay [19] is Streptococcus pneumoniae. Nature of the assay: Antibacterial activity against Streptococcus pneumoniae 1629 by broth micro dilution technique.
For a further assay, the system named is Enterococcus faecalis. The assay can be described thus: Antibacterial activity against Enterococcus faecalis by broth micro dilution technique.
The test system of assay [20] is Streptococcus pneumoniae. The assay can be described thus: Antibacterial activity against Streptococcus pneumoniae N1387 by broth micro dilution technique.
In assay [21] the test system is Streptococcus pyogenes. The assay can be described thus: Antibacterial activity against Streptococcus pyogenes 1307006P by broth micro dilution technique.

Regarding `C=C1C[C@@H](C(=O)Nc2ccc(F)cc2)N(C(=O)[C@H](CCCC)CN(O)C=O)C1`, the MIC was 1 µg/mL (≈ 2.55 µM) against Staphylococcus aureus [1], 1 µg/mL (≈ 2.55 µM) in assay [2], 0.5 µg/mL (≈ 1.28 µM) against Staphylococcus aureus [3] and 4 µg/mL (≈ 10.2 µM) with Staphylococcus aureus [4].

With `CN[C@H](CC(C)C)C(=O)N[C@H]1C(=O)N[C@@H](CC(N)=O)C(=O)N[C@H]2C(=O)N[C@H]3C(=O)N[C@H](C(=O)N[C@H](C(=O)O)c4cc(O)cc(O)c4-c4cc3ccc4O)[C@H](O)c3ccc(c(Cl)c3)Oc3cc2cc(c3O[C@@H]2O[C@H](CO)[C@@H](O)[C@H](O)[C@H]2O[C@H]2C[C@](C)(N)[C@H](O)[C@H](C)O2)Oc2ccc(cc2Cl)[C@H]1O` [VANCOMYCIN], the MIC in the assay with Streptococcus pneumoniae [5] and against Streptococcus pneumoniae [6] was 1 µg/mL (≈ 0.69 µM) in each case.

Regarding `C=C1C[C@@H](C(=O)Nc2ccc(O)cc2)N(C(=O)[C@H](CCCC)CN(O)C=O)C1`, the MIC in the assay with Staphylococcus aureus [1] is 8 µg/mL (≈ 20.5 µM); in assay [2], 8 µg/mL (≈ 20.5 µM); against Staphylococcus aureus [3], 4 µg/mL (≈ 10.3 µM); in the assay with Staphylococcus aureus [4] it was 32 µg/mL (≈ 82.2 µM).

With `C=C1C[C@@H](C(=O)Nc2ncc(C)s2)N(C(=O)[C@H](CCCC)CN(O)C=O)C1`, the MIC in the assay with Moraxella catarrhalis is no more than 0.06 µg/mL; against Haemophilus influenzae [7], no more than 0.06 µg/mL; against Streptococcus pyogenes [8], 2 µg/mL (≈ 5.07 µM); with Staphylococcus aureus [1], 0.5 µg/mL (≈ 1.27 µM); in the assay on Haemophilus influenzae [9], 4 µg/mL (≈ 10.1 µM); in the assay with Escherichia coli it was 64 µg/mL (≈ 162 µM). The MIC in [10] came out at 2 µg/mL (≈ 5.07 µM); with Haemophilus influenzae [11], 4 µg/mL (≈ 10.1 µM); in [12], 1 µg/mL (≈ 2.53 µM); with Staphylococcus aureus [13] it was 0.5 µg/mL (≈ 1.27 µM); in the assay with Haemophilus influenzae [14] it was 4 µg/mL (≈ 10.1 µM); in the assay with Staphylococcus aureus [15] it was 1 µg/mL (≈ 2.53 µM). Further, the MIC amounted to 0.125 µg/mL (≈ 0.317 µM) with Staphylococcus aureus [16]; 0.125 µg/mL (≈ 0.317 µM) in [2]; 0.125 µg/mL (≈ 0.317 µM) with Staphylococcus aureus [3]; 2 µg/mL (≈ 5.07 µM) against Enterococcus faecium; 0.25 µg/mL (≈ 0.634 µM) in the assay with Streptococcus pneumoniae [5]; 0.5 µg/mL (≈ 1.27 µM) in the assay with Staphylococcus aureus [17]. In addition, the MIC against Streptococcus pneumoniae [18] came out at 2 µg/mL (≈ 5.07 µM); in the assay on Staphylococcus aureus [4], 1 µg/mL (≈ 2.53 µM); with Streptococcus pneumoniae [19], 2 µg/mL (≈ 5.07 µM); with Enterococcus faecalis it was 4 µg/mL (≈ 10.1 µM); with Streptococcus pneumoniae [20] it was 1 µg/mL (≈ 2.53 µM); against Streptococcus pneumoniae [6], 0.5 µg/mL (≈ 1.27 µM). In the assay on Streptococcus pyogenes [21], the MIC was determined as 2 µg/mL (≈ 5.07 µM).

On to `C=C1C[C@@H](C(=O)Nc2ccccc2)N(C(=O)[C@H](CC2CCCC2)CN(O)C=O)C1`, for which the MIC against Staphylococcus aureus [1] amounted to 0.5 µg/mL (≈ 1.25 µM); in [2], 0.5 µg/mL (≈ 1.25 µM); against Staphylococcus aureus [3], 0.25 µg/mL (≈ 0.626 µM); against Staphylococcus aureus [4] it was 1 µg/mL (≈ 2.5 µM).

For the compound `CC1(C)S[C@@H]2[C@H](NC(=O)[C@H](N)c3ccc(O)cc3)C(=O)N2[C@H]1C(=O)O` [AMOXICILLIN], the MIC was no more than 0.06 µg/mL in the assay with Moraxella catarrhalis; 64 µg/mL (≈ 175 µM) against Haemophilus influenzae [7]; no more than 0.06 µg/mL against Streptococcus pyogenes [8]; 1 µg/mL (≈ 2.74 µM) against Escherichia coli; 32 µg/mL (≈ 87.6 µM) in the assay with Haemophilus influenzae [11]; 0.125 µg/mL (≈ 0.342 µM) against Staphylococcus aureus [13]. Moreover, the MIC with Haemophilus influenzae [14] was 0.25 µg/mL (≈ 0.684 µM); in the assay on Staphylococcus aureus [16] it was 64 µg/mL (≈ 175 µM); against Enterococcus faecium, 16 µg/mL (≈ 43.8 µM); in the assay with Streptococcus pneumoniae [18], no more than 0.06 µg/mL; against Streptococcus pneumoniae [19], no more than 0.06 µg/mL; against Enterococcus faecalis, 0.5 µg/mL (≈ 1.37 µM). For the same compound, the MIC with Streptococcus pneumoniae [20] was 2 µg/mL (≈ 5.47 µM); against Streptococcus pyogenes [21] it was no more than 0.06 µg/mL.

In the case of `C=C1C[C@@H](C(=O)N2CCOCC2)N(C(=O)[C@H](CCCC)CN(O)C=O)C1`, the MIC with Staphylococcus aureus [1] is 8 µg/mL (≈ 21.8 µM); in assay [2], 16 µg/mL (≈ 43.5 µM); in the assay on Staphylococcus aureus [3] it was 8 µg/mL (≈ 21.8 µM); against Staphylococcus aureus [4] it was greater than 64 µg/mL.

`C=C1C[C@@H](C(=O)Nc2ncc(C)s2)N(C(=O)[C@H](CC2CCCC2)CN(O)C=O)C1`: the MIC with Staphylococcus aureus [1] was found to be 0.0625 µg/mL (≈ 0.149 µM); against Haemophilus influenzae [9], 1 µg/mL (≈ 2.38 µM); in assay [10], 0.5 µg/mL (≈ 1.19 µM); in [12], 1 µg/mL (≈ 2.38 µM); in the assay on Staphylococcus aureus [15], 1 µg/mL (≈ 2.38 µM); in assay [2] it was 0.125 µg/mL (≈ 0.297 µM). Further, the MIC with Staphylococcus aureus [3] stood at 0.0625 µg/mL (≈ 0.149 µM); against Streptococcus pneumoniae [5], 0.25 µg/mL (≈ 0.594 µM); in the assay with Staphylococcus aureus [17] it was 0.0625 µg/mL (≈ 0.149 µM); in the assay on Staphylococcus aureus [4], 0.5 µg/mL (≈ 1.19 µM); with Streptococcus pneumoniae [6], 0.25 µg/mL (≈ 0.594 µM).

`C=C1C[C@@H](C(=O)Nc2ccccc2)N(C(=O)[C@H](CCCC)CN(O)C=O)C1`: the MIC against Staphylococcus aureus [1] turned out to be 2 µg/mL (≈ 5.36 µM); in assay [2] it was 2 µg/mL (≈ 5.36 µM); in the assay on Staphylococcus aureus [3], 1 µg/mL (≈ 2.68 µM); with Staphylococcus aureus [4] it was 8 µg/mL (≈ 21.4 µM).

`CC1(C)S[C@@H]2[C@H](NC(=O)Cc3ccccc3)C(=O)N2[C@H]1C(=O)O` [PENICILLIN G]: the MIC against Staphylococcus aureus [1] worked out at 0.0625 µg/mL (≈ 0.187 µM); in the assay on Haemophilus influenzae [9] it was 16 µg/mL (≈ 47.8 µM); in assay [10], 64 µg/mL (≈ 191 µM); in assay [12], 4 µg/mL (≈ 12 µM); in the assay on Staphylococcus aureus [15], 0.5 µg/mL (≈ 1.5 µM); in [2], 2 µg/mL (≈ 5.98 µM). In addition, the MIC in the assay with Staphylococcus aureus [3] was 64 µg/mL (≈ 191 µM); in the assay with Streptococcus pneumoniae [5] it was 2 µg/mL (≈ 5.98 µM); in the assay on Staphylococcus aureus [17], 64 µg/mL (≈ 191 µM); against Staphylococcus aureus [4] it was 1 µg/mL (≈ 2.99 µM); in the assay on Streptococcus pneumoniae [6] it was 64 µg/mL (≈ 191 µM).
